Results on 1 compound are retold here after patent US20210187128A1, “COLOR CHANGING SILK PATCH FOR VISIBLE ROS DETECTION” (University of Central Florida Research Foundation, Inc., priority 2019, published 2021).

The test system of series [1] is human skin keratinocyte (HaCat) cells. As to the kind of experiment: In vitro cellular biocompatibility of Amplex Red by MTT assay. In kind it is cell-based. To be noted: for cellular viability: highest concentration of 388 μM, beyond 80% considered biocompatible. The protocol:
Amplex Red compound was tested for in vitro cellular toxicity analysis against the human skin keratinocyte (HaCat) cells (purchased from ATCC, USA) using cell culture-based MTT assay. Herein, 10,000 cells were grown overnight into a 96 well plate using DMEM:F12 cell culture media. Different concentrations of Amplex red compound were prepared using incomplete cell culture media and incubated with HaCat cells for a time period of 24 hours and 48 hours respectively. Post incubation time period, MTT analysis was performed using the standard protocol described in Singh 2018, herein incorporated by reference into this disclosure in its entirety. (S. (Singh, A. Ly, S. Das, T. S. Sakthivel, S. Barkam and S. Seal, Artif. Cells, Nanomed., Biotechnol., 2018, 1-8). MTT assay compound (Thiazyolyl blue tetrazolium bromide) was then added for measuring the cellular viability, and absorbance was recorded for treated samples in comparison to control samples (HaCat cells only) and data analysis was performed.
On the technique in general: Tetrazolium assays rely on reduction of a dye to a coloured formazan, in cell work by metabolically active cells.

For series [2] the following is noted: cited from earlier work.

For `CC(=O)N1c2ccc(O)cc2Oc2cc(O)ccc21` [Amplex Red], the “toxicity to the cells” value in series [1] is on record as “completely non-toxic”. Also, the “concentration found to be highly biocompatible” value in series [1] (24 hours) and in series [1] (48 hours) was “up to 388 μM” in each case. For the same compound, the cellular viability in series [1] (24 hours) and in series [1] (48 hours) was greater than 80% throughout. In addition, in series [2] (in solutions), the “detection limit for H2O2 in solutions” value is 10 picomolar. Besides, the “amount of H2O2 detected (limit of detection)” value in series [2] (with HRP, 100 μL volume) was 10 picomoles.
